Measured values reported in US20070225351A1, “Methods and compositions for controlling body weight and appetite” (priority 2002, published 2007).

How the values were obtained:
[1] = biological target: norepinephrine transporter (Rattus norvegicus, UniProt Q63380); conditions: from Table 1
Experimental: Reactions were carried out in 50 mM TRIS-HCl (pH 7.4), containing 300 mM NaCl and 5 mM KCl at 0° C. to 4° C. for 4 hours. The reaction was terminated by rapid vacuum filtration onto glass fiber filters. Radioactivity trapped in the filters was determined and compared to control values in order to ascertain the interactions of the test compound with the norepinephrine uptake site.

serotonin transporter = biological target: T1, serotonin transporter (Rattus norvegicus, UniProt P31652); test: Serotonin transporter binding assay, [3H]citalopram; conditions: from Table 2
T1 construct: The receptor source was rat forebrain membrane; from tissue; host or cells: rat forebrain membranes
Experimental: The reference compound and positive control were (±)-desmethylimipramine. […] Reactions were carried out in 50 mM TRIS-HCl (pH 7.4) containing 120 mM NaCl and 5 mM KCl at 25° C. for 60 minutes. The reaction was terminated by rapid vacuum filtration onto glass fiber filters. Radioactivity trapped in the filters was determined using liquid scintillation spectrometry and compared to control values in order to ascertain any interactions of test compound with the serotonin transporter binding site.

[2] = 13-week oral toxicity study in rats (body weight, food consumption, clinical pathology, organ weights); format: in vivo, rat; conditions: for mean cumulative body weight gain, lower than control: end of 13-week study; for mean body weight, lower than control: end of study
Experimental: One hundred and forty Crl:CD®(SD)IGS BR rats were divided into 7 groups of 20 rats (ten male and ten female). […] Individual body weights were recorded at least weekly, beginning approximately two weeks prior to test article administration (study week-2). Mean body weights and mean body weight changes were calculated for the corresponding intervals. Final body weights (fasted) were recorded prior to the scheduled necropsy.
For toxicology assessment, all animals were observed three times daily for mortality and moribundity. Clinical examinations were performed daily and detailed physical examinations were performed weekly. Following 13 weeks of dose administration, all surviving animals were euthanized.

T1 sequence (P31652 whole entry): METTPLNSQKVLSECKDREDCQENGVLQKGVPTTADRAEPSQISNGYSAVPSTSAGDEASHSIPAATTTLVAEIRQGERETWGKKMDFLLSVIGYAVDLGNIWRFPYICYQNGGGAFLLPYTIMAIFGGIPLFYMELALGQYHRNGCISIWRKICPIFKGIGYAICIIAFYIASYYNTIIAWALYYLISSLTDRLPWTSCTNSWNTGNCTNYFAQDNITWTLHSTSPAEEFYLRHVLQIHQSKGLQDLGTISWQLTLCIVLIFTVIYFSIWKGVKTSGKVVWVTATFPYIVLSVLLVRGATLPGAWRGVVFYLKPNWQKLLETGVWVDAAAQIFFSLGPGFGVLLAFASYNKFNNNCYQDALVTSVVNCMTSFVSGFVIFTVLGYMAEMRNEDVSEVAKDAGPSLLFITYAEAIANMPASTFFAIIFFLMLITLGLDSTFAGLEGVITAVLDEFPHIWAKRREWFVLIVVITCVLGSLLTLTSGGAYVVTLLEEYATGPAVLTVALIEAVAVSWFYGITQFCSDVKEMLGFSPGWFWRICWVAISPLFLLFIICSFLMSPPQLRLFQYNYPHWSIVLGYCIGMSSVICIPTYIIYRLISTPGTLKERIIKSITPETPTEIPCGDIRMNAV
Sequence of norepinephrine transporter (Q63380 1-617): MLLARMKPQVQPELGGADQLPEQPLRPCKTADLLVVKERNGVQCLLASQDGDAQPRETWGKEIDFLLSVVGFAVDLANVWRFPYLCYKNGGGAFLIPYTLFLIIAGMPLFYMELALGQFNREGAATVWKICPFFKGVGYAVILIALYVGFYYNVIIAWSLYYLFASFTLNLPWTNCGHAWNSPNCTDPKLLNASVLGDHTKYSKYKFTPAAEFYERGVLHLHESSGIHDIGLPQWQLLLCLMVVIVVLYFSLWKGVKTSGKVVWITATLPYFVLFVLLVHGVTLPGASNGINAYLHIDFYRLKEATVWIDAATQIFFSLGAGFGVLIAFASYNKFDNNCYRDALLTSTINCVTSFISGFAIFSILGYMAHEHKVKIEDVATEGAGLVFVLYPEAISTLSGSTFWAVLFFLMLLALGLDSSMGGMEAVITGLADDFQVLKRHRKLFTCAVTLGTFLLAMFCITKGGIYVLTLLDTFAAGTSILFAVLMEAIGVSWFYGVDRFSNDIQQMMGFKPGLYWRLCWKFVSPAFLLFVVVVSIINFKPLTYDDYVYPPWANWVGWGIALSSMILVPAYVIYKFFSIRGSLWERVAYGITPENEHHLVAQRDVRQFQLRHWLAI

## Cl.Clc1ccc([C@@]23CNC[C@@H]2C3)cc1Cl (single isomer, unassigned) [(+)-1-(3,4-dichlorophenyl)-3-azabicyclo[3.1.0]hexane hydrochloride]
[1]
  affinity for the norepinephrine uptake site compared with the (±) compound: significantly greater affinity
Serotonin transporter
  affinity for the serotonin uptake site compared with the (±) compound: significantly greater affinity
[2]; both sexes, Crl:CD(SD)IGS BR, rat, in vivo, rats, oral administration for 13 weeks, read-out: no-observed-adverse-effect level (NOAEL)
  NOAEL at 13 weeks: 10 mg/kg/day
[2]; female rats, 25 mg/kg/day oral
  mean cumulative body weight gain, lower than control: 13%
[2]; female rats, 25 mg/kg/day, first week
  food consumption, lower than control: 16%
[2]; female rats, 60 mg/kg/day oral
  mean cumulative body weight gain, lower than control: 13%
  mean body weight, lower than control: 9%
[2]; female rats, 60 mg/kg/day, first week
  food consumption, lower than control: 32%
[2]; female rats, 60 mg/kg/day, second week
  food consumption, lower than control: 11%
[2]; female rats, 10 MG/KG/DAY group, WEEK −2 TO −1 (before dosing)
  weekly food consumption, MEAN: 18. C/ANIMAL/DAY
[2]; female rats, 10 MG/KG/DAY, WEEK 0 TO 1
  weekly food consumption, MEAN: 17. C/ANIMAL/DAY
[2]; female rats, 10 MG/KG/DAY, WEEK 1 TO 2
  weekly food consumption, MEAN: 19. C/ANIMAL/DAY
[2]; female rats, 10 MG/KG/DAY, WEEK 2 TO 3
  weekly food consumption, MEAN: 20. C/ANIMAL/DAY
[2]; female rats, 10 MG/KG/DAY, WEEK 3 TO 4
  weekly food consumption, MEAN: 20. C/ANIMAL/DAY
[2]; female rats, 10 MG/KG/DAY, WEEK 4 TO 5
  weekly food consumption, MEAN: 19. C/ANIMAL/DAY
[2]; female rats, 10 MG/KG/DAY, WEEK 5 TO 6
  weekly food consumption, MEAN: 18. C/ANIMAL/DAY
[2]; female rats, 10 MG/KG/DAY, WEEK 6 TO 7
  weekly food consumption, MEAN: 18. C/ANIMAL/DAY
[2]; female rats, 10 MG/KG/DAY, WEEK 7 TO 8
  weekly food consumption, MEAN: 18. C/ANIMAL/DAY
[2]; female rats, 10 MG/KG/DAY, WEEK 8 TO 9
  weekly food consumption, MEAN: 18. C/ANIMAL/DAY
[2]; female rats, 10 MG/KG/DAY, WEEK 9 TO 10
  weekly food consumption, MEAN: 18. C/ANIMAL/DAY
[2]; female rats, 10 MG/KG/DAY, WEEK 10 TO 11
  weekly food consumption, MEAN: 18. C/ANIMAL/DAY
[2]; female rats, 10 MG/KG/DAY, WEEK 11 TO 12
  weekly food consumption, MEAN: 18. C/ANIMAL/DAY
[2]; female rats, 10 MG/KG/DAY, WEEK 12 TO 13
  weekly food consumption, MEAN: 17. C/ANIMAL/DAY
[2]; female rats, 25 MG/KG/DAY group, WEEK −2 TO −1 (before dosing)
  weekly food consumption, MEAN: 17. C/ANIMAL/DAY
[2]; female rats, 25 MG/KG/DAY, WEEK 0 TO 1
  weekly food consumption, MEAN: 16.** C/ANIMAL/DAY
[2]; female rats, 25 MG/KG/DAY, WEEK 1 TO 2
  weekly food consumption, MEAN: 20. C/ANIMAL/DAY
[2]; female rats, 25 MG/KG/DAY, WEEK 2 TO 3
  weekly food consumption, MEAN: 10. C/ANIMAL/DAY
[2]; female rats, 25 MG/KG/DAY, WEEK 3 TO 4
  weekly food consumption, MEAN: 20. C/ANIMAL/DAY
[2]; female rats, 25 MG/KG/DAY, WEEK 4 TO 5
  weekly food consumption, MEAN: 18. C/ANIMAL/DAY
[2]; female rats, 25 MG/KG/DAY, WEEK 5 TO 6
  weekly food consumption, MEAN: 19. C/ANIMAL/DAY
[2]; female rats, 25 MG/KG/DAY, WEEK 6 TO 7
  weekly food consumption, MEAN: 18. C/ANIMAL/DAY
[2]; female rats, 25 MG/KG/DAY, WEEK 7 TO 8
  weekly food consumption, MEAN: 17. C/ANIMAL/DAY
[2]; female rats, 25 MG/KG/DAY, WEEK 8 TO 9
  weekly food consumption, MEAN: 19. C/ANIMAL/DAY
[2]; female rats, 25 MG/KG/DAY, WEEK 9 TO 10
  weekly food consumption, MEAN: 18. C/ANIMAL/DAY
[2]; female rats, 25 MG/KG/DAY, WEEK 10 TO 11
  weekly food consumption, MEAN: 18. C/ANIMAL/DAY
[2]; female rats, 25 MG/KG/DAY, WEEK 11 TO 12
  weekly food consumption, MEAN: 18. C/ANIMAL/DAY
[2]; female rats, 25 MG/KG/DAY, WEEK 12 TO 13
  weekly food consumption, MEAN: 17. C/ANIMAL/DAY
[2]; female rats, 60 MG/KG/DAY group, WEEK −2 TO −1 (before dosing)
  weekly food consumption, MEAN: 17. C/ANIMAL/DAY
[2]; female rats, 60 MG/KG/DAY, WEEK 0 TO 1
  weekly food consumption, MEAN: 13.** C/ANIMAL/DAY
[2]; female rats, 60 MG/KG/DAY, WEEK 1 TO 2
  weekly food consumption, MEAN: 17.* C/ANIMAL/DAY
[2]; female rats, 60 MG/KG/DAY, WEEK 2 TO 3
  weekly food consumption, MEAN: 18. C/ANIMAL/DAY
[2]; female rats, 60 MG/KG/DAY, WEEK 3 TO 4
  weekly food consumption, MEAN: 16. C/ANIMAL/DAY
[2]; female rats, 60 MG/KG/DAY, WEEK 4 TO 5
  weekly food consumption, MEAN: 17. C/ANIMAL/DAY
[2]; female rats, 60 MG/KG/DAY, WEEK 5 TO 6
  weekly food consumption, MEAN: 18. C/ANIMAL/DAY
[2]; female rats, 60 MG/KG/DAY, WEEK 6 TO 7
  weekly food consumption, MEAN: 18. C/ANIMAL/DAY
[2]; female rats, 60 MG/KG/DAY, WEEK 7 TO 8
  weekly food consumption, MEAN: 18. C/ANIMAL/DAY
[2]; female rats, 60 MG/KG/DAY, WEEK 8 TO 9
  weekly food consumption, MEAN: 18. C/ANIMAL/DAY
[2]; female rats, 60 MG/KG/DAY, WEEK 9 TO 10
  weekly food consumption, MEAN: 17. C/ANIMAL/DAY
[2]; female rats, 60 MG/KG/DAY, WEEK 10 TO 11
  weekly food consumption, MEAN: 17. C/ANIMAL/DAY
[2]; female rats, 60 MG/KG/DAY, WEEK 11 TO 12
  weekly food consumption, MEAN: 18. C/ANIMAL/DAY
[2]; female rats, 60 MG/KG/DAY, WEEK 12 TO 13
  weekly food consumption, MEAN: 17. C/ANIMAL/DAY
[2]; male rats, 25 mg/kg/day oral
  mean cumulative body weight gain, lower than control: 16%
  mean body weight, lower than control: 10%
[2]; male rats, 25 mg/kg/day, first week
  food consumption, lower than control: 8%
[2]; male rats, 60 mg/kg/day oral
  mean cumulative body weight gain, lower than control: 30%
  mean body weight, lower than control: 18%
[2]; male rats, 60 mg/kg/day, first week
  food consumption, lower than control: 19%
[2]; male rats, 60 mg/kg/day, second week
  food consumption, lower than control: 4%
[2]; rat, in vivo, 60 mg/kg/day
  alanine aminotransferase (ALT) level: higher
  alkaline phosphatase (ALP), higher: 35-55%
  bilirubin, higher: 35-55%
